Structures are written as SMILES.

For test [1], the system named is Pyrenophora teres. The test can be described thus: In vivo test, helminthosporium disease of barley, preventive treatment 7 days before infection (Colby). The settings on record: graded 10 days after infection. The procedure:
In vivo test of the combination of ICIA5504 with iprodione with respect to helminthosporium disease of barley by preventive treatment 7 days before infection.
The fungicides are used at the following doses:
The young barley plants (var. Express) which are 12 days old (first leaf developed stage) are treated with the experimental fungicides at the doses indicated above in a slurry volume of 250 l/ha (3 repeats/dose). Seven days after the treatment, the young barley plants are infected with a suspension of Pyrenophora teres spores (10,000 spores/ml). The young plants are incubated for 48 hours at 20° C., 100% relative humidity (RH). Next, the plants are transferred to a greenhouse at 20° C., 70-80% RH under natural light. The grading of the disease is carried out ten days after infection by estimating the leaf surface area contaminated on the first leaf (10 young plants/pot).
By comparing with the control (non-treated-contaminated) a percentage efficacy is calculated. The synergy is then quantified by using the Colby model.

The subject of test [2] is Alternaria brassicae. Kind of test: In vivo test, alternaria disease of radish, preventive treatment 24 hours before infection (Tammes isobole). To be noted: radish seedlings, spray 24 h before infection, reading 6 days after infection. As to the method:
In vivo test of the combination of ICIA5504 with iprodione with respect to alternaria disease of radish (Alternaria brassicae) by preventive treatment 24 hours before infection. A suspension comprising the compounds A and B in a liquid mixture composed of a surface-active agent (oleate of polyoxyethylenated derivative of sorbitan) and water is prepared. The component B is iprodione; the A/B ratio is 0.25, 0.5, 1, 2 or 4. Radish seedlings (variety Pernot), are grown in small pots. When these seedlings are 10-12 days old (cotyledon, 1st leaf stage), they are treated by spraying with the above suspension. […] After 24 hours, each seedling is infected by spraying with an aqueous suspension of spores of Alternaria brassica, which suspension is obtained from an in vitro culture of the fungus. These spores are suspended at a concentration of 40,000 units per cm^3 of inoculum. Infection is carried out by spraying the inoculum at the top surface of the leaves. The infected seedlings are then incubated for six days at 18-20° C. at 90-100% relative humidity under natural light. Reading is carried out 6 days after infection, in comparison with the control seedlings. […]

Regarding `CC(C)NC(=O)N1CC(=O)N(c2cc(Cl)cc(Cl)c2)C1=O` [iprodione], the Observed efficacy in test [1] (iprodione 12.5 g/ha alone) was determined as 15.79%; in test [1] (iprodione 25 g/ha alone) it was 7.02%; in test [1] (iprodione 50 g/ha alone) it was 37.72%; in test [1] (iprodione 100 g/ha alone) it was 35.09%; in test [1] (iprodione 200 g/ha alone), 47.37%; in test [1] (iprodione 400 g/ha alone) it was 50.88%. Besides, in test [1] (iprodione 800 g/ha alone), the Observed efficacy was found to be 59.65%.

Turning to `CO/C=C(/C(=O)OC)c1ccccc1Oc1cc(Oc2ccccc2C#N)ncn1` [ICIA5504, methyl (E)-2-{2-[6-(2-cyanophenoxy)pyrimidin-4-yloxy]phenyl}-3-methoxyacrylate], the “dose of A alone necessary for the destruction of 80% of the parasite” value in test [2] is given as 115 ppm (mg/l). Moreover, the Observed efficacy worked out at 0% in test [1] (ICIA5504 1.5 g/ha alone); 17.54% in test [1] (ICIA5504 3.1 g/ha alone); 34.21% in test [1] (ICIA5504 6.2 g/ha alone); 59.21% in test [1] (ICIA5504 12.5 g/ha alone); 76.75% in test [1] (ICIA5504 25 g/ha alone); 83.86% in test [1] (ICIA5504 50 g/ha alone). Further, the Observed efficacy in test [1] (ICIA5504 100 g/ha alone) amounted to 81.67%; in test [1] (ICIA5504 200 g/ha alone), 92.72%.

(Values after US20030027720A1, “Synergistic fungicidal composition comprising a compound analogous to strobilurin” (priority 1995, published 2003).)
